# Test results reported in ChEMBL document CHEMBL1777673, “Synthesis and biological evaluation of 3-alkyl-dihydrotetrabenazine derivatives as vesicular monoamine transporter-2 (VMAT2) ligands” (Bioorg Med Chem Lett, 2011).
# How the values were obtained:
# [1] = target: T1, Synaptic vesicular amine transporter (Rattus norvegicus, UniProt Q01827); assay: Displacement of [18F](+)-FP-DTBZ from VMAT2 in rat striatal homogenate after 60 mins by gamma counting
# [2] = target: T1, Synaptic vesicular amine transporter; assay: Displacement of [125I]-iodovinyl-TBZ from VMAT2 in rat striatal homogenate after 60 mins by gamma counting
# [3] = tested on: Nucleic Acid; assay: Ratio of drug uptake in striatum to cerebellum in ICR mouse at 10 to 20 uCi, iv by gamma counting; format: ADME, organism-based; details: in vivo
# T1 sequence (Q01827 whole entry): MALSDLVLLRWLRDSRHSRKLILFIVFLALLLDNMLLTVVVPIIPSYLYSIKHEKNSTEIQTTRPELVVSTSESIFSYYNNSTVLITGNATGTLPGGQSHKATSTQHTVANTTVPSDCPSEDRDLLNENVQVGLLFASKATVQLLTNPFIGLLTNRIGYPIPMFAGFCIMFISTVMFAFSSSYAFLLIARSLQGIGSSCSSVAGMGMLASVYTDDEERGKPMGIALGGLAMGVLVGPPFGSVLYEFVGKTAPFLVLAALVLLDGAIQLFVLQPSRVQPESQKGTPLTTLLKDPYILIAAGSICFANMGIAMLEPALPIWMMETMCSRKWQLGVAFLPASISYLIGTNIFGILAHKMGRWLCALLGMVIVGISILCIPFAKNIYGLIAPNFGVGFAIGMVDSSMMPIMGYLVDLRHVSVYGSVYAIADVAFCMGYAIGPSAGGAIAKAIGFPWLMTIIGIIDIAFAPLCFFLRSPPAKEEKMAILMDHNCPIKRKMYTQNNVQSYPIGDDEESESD
Ki [2] [nM],Structure (SMILES),further results
227,COc1cc2c(cc1OC)C1C[C@@H](O)C(CC3CCCC3)CN1CC2 (mixture of isomers),–
137,COc1cc2c(cc1OC)C1C[C@@H](O)C(CC3CCCCC3)CN1CC2 (mixture of isomers),–

# More lines, now with the values behind:
Structure (SMILES),Ki [2] [nM],further results
C=CCC1CN2CCc3cc(OC)c(OC)cc3C2C[C@H]1O (mixture of isomers),–,Ki [1]: 253 nM
COc1cc2c(cc1OC)C1C[C@@H](O)C(CC3CCC3)CN1CC2 (mixture of isomers),26.9,–
C/C=C/C1CN2CCc3cc(OCCCF)c(OC)cc3C2C[C@H]1O (mixture of isomers),–,Ki [1]: 22.4 nM
COc1cc2c(cc1OCCC[18F])CCN1C[C@@H](CC(C)C)[C@H](O)C[C@H]21 [FLORBENAZINE F 18],–,Ratio [3]: 4.51
COc1cc2c(cc1OCCCF)CCN1C[C@@H](CC(C)C)[C@H](O)C[C@H]21 [FLORBENAZINE],0.1,–
